Assay results reported in a compilation of properties of binary mixtures (doi:10.1021/acs.jced.0c00495).

Assay: xn = mol fraction of the nth substance listed
Settings: 101.3 kPa

Nc1ccccc1 + CCCCCCCCn1cc[n+](C)c1.F[B-](F)(F)F
x2 = 0
Settings	speed of sound [m/s]
293.15 K	1657
298.15 K	1638
303.15 K	1618
308.15 K	1599
318.15 K	1561
323.15 K	1542

Nc1ccccc1 + CCCCCC[n+]1ccn(C)c1.F[B-](F)(F)F
x2 = 0
Settings	speed of sound [m/s]
293.15 K	1657
298.15 K	1638
303.15 K	1618
308.15 K	1599

Nc1ccccc1 + CCCC[n+]1ccn(C)c1.F[B-](F)(F)F
speed of sound [m/s]
Settings	x2 = 0	x2 = 0.0925	x2 = 0.2022	x2 = 0.2995	x2 = 0.4002	x2 = 0.4982	x2 = 0.5953	x2 = 0.6935	x2 = 0.7904	x2 = 0.9191
293.15 K	–	1656	–	1645	1634	–	1613	1603	–	1583
298.15 K	1638	–	1636	1630	1619	–	1600	1590	1581	1571
303.15 K	–	1623	1619	1614	1604	1595	1587	–	–	–
308.15 K	1599	1606	1603	–	1590	–	1573	1565	1557	1548
313.15 K	–	1588	1587	1582	–	1568	1560	1553	1546	1537
318.15 K	1561	1570	1571	1566	1561	–	1548	–	1534	1526
323.15 K	–	1553	1555	–	–	1541	–	1529	1523	1516

CCCCCCCCn1cc[n+](C)c1.F[B-](F)(F)F + Nc1ccccc1
speed of sound [m/s]
Settings	x1 = 0.0996	x1 = 0.1904	x1 = 0.2853	x1 = 0.3789	x1 = 0.4955	x1 = 0.5783	x1 = 0.6966	x1 = 0.7938	x1 = 0.8958
293.15 K	1640	1619	1595	1574	1553	1540	1526	1516	–
298.15 K	–	–	1580	1560	1539	1526	1512	–	1494
303.15 K	–	–	1564	1545	1525	1513	1499	1488	–
308.15 K	1589	–	1549	1530	1511	–	1485	1476	1467
313.15 K	–	1554	1534	–	1496	1485	1472	1463	1454
318.15 K	1554	1538	1518	–	1483	1472	1459	1450	1441
323.15 K	–	–	1502	1486	1469	1458	1446	–	1429

CCCCCC[n+]1ccn(C)c1.F[B-](F)(F)F + Nc1ccccc1
speed of sound [m/s]
Settings	x1 = 0.0989	x1 = 0.1792	x1 = 0.2896	x1 = 0.3924	x1 = 0.5062	x1 = 0.6042	x1 = 0.6986	x1 = 0.7974	x1 = 0.8962
293.15 K	1653	–	1618	1598	1579	1565	–	–	1539
298.15 K	1636	1623	1603	1583	–	–	1541	1532	1526
303.15 K	–	1606	1586	1568	1550	1537	–	1520	1513
308.15 K	1601	1589	1571	1553	1536	1524	1515	1507	1501
313.15 K	–	1572	1555	1539	1522	1510	1502	1494	1489
318.15 K	1565	1556	1540	1525	1509	–	–	1482	1476
323.15 K	1547	–	1525	–	1496	1485	1477	1470	1464
